Results from publication PMC10535535, “Imidazopyridine-Based Thiazole Derivatives as Potential Antidiabetic Agents: Synthesis, In Vitro Bioactivity, and In Silico Molecular Modeling Approach” (Pharmaceuticals, 2023).

molecular target: α-glucosidase; experiment: α-glucosidase inhibition assay (pNPG, spectrophotometric); format: biochemical; conditions: in vitro, pNPG substrate, 37 °C, triplicate; read-out: IC50 ± SEM
Experimental: With slight modification to an earlier technique, the α-glucosidase inhibition profiles of the synthesized scaffolds were assessed spectrophotometrically. Amounts of 10 μL of the sample, 120 μL of 100 mM potassium phosphate buffer, and […] of a 0.5 U/mL α-glucosidase solution (0.3 mM, in buffer) were combined for each chemical. […] Each combination was incubated at 37 °C for a separate period of 15 min. […] Once more, the mixture was incubated for 15 min at 37 °C. At that point, 80 μL of a 0.2 M sodium carbonate solution was administered to terminate the process. The mixture that included no enzymes also functioned as a blank sample. At 405 nm, the absorbance was finally calculated. To accurately measure the background absorbance, the blank sample, which replaced the substrate with 50 μL of the buffer, was examined. […] Assuming that A represents the absorbance of the control without test samples and B represents the absorbance with test samples present, the percentage of enzyme inhibition was computed as (1 B/A) 100. […] 4.4. Assay protocol for α-glucosidase inhibition The α-glucosidase inhibition profiles of synthesized scaffolds were determined spectrophotometrically, with some modifications to an earlier method. For each chemical, 10 μL of the sample, 120 μL of 100 mM potassium phosphate buffer, and 20 μL of 0.5 U/mL alpha-glucosidase solution was mixed (0.3 mM, in buffer). […] At 37 °C, each mixture was incubated for a separate 15 minutes. The enzymatic reaction was initiated by adding 20 μL of the substrate 4-nitrophenyl- D-α-glucopyranoside (pNPG) (5 mM) to the solution. The mixture was once more incubated at 37 °C for 15 minutes. To stop the process at that point, 80μL of sodium carbonate solution were injected (0.2 M). Additionally, the mixture without any enzymes served as a blank sample. The absorbance was finally determined at 405 nm. The blank sample, in which the substrate was swapped out for 50 μL of the buffer, was analyzed to properly quantify the background absorbance. […] The percentage of enzyme inhibition was calculated as (1 B/A) 100, assuming that A represents the absorbance of the control without test samples and B represents the absorbance with test samples present. The analyses were carried out in triplicate, and the results were presented as mean SD. 4.5. […] On the Discovery Studio R2 64-bit Client system, interactive molecular structure visualization and analysis were done. From the RCSB Protein Data Bank, the three-dimensional (3D) structure of α-glucosidase was retrieved (PDB). The chemical structures of the ligands were obtained from the Pub Chem compound database. Using Open Babel, the PDB files were converted into PDBQT files. For docking analysis, the PDB coordinates of the ligands and targets were optimized. Geometry optimization is carried out using Gaussian 09 (adding missing residues). […] Further details were summarized in our previous articles.

| Compound | IC50 [µM] |
| --- | --- |
| O=[N+]([O-])c1cc(-c2csc(N/N=C\c3cnc4ccc(F)cn34)n2)cc(C(F)(F)F)c1 [4a] | 6.85 ± 2.18 |
| Fc1ccc2ncc(/C=N\Nc3nc(-c4ccc(-c5ccccc5)cc4)cs3)n2c1 [4c] | 63.5 ± 5.28 |
| CN(C)c1ccc(-c2csc(N/N=C\c3cnc4ccc(F)cn34)n2)cc1 [4d] | 32.1 ± 4.29 |
| COc1cc(C)ccc1-c1csc(N/N=C\c2cnc3ccc(F)cn23)n1 [4e] | 44.9 ± 5.27 |
| O=[N+]([O-])c1ccc(C(F)(F)F)c(-c2csc(N/N=C\c3cnc4ccc(F)cn34)n2)c1 [4g] | 5.57 ± 3.45 |
| COc1cc(O)ccc1-c1csc(N/N=C\c2cnc3ccc(F)cn23)n1 [4i] | 34.9 ± 5.84 |
| Cc1ccc(-c2csc(N/N=C\c3cnc4ccc(F)cn34)n2)c([N+](=O)[O-])c1 [4j] | 22.6 ± 3.55 |
| Oc1ccc(-c2csc(N/N=C\c3cnc4ccc(F)cn34)n2)c(O)c1 [4p] | 10.5 ± 2.2 |

Continued by falling IC50, values first:

| IC50 [µM] | Compound |
| --- | --- |
| 61.4 ± 4.56 | Cc1ccc(-c2ccc(-c3csc(N/N=C\c4cnc5ccc(F)cn45)n3)cc2)cc1 [4n] |
| 56.3 ± 5.94 | COc1ccc(-c2csc(N/N=C\c3cnc4ccc(F)cn34)n2)c(OC)c1 [4m] |
| 51 ± 5.8 | Cc1ccc(-c2csc(N/N=C\c3cnc4ccc(F)cn34)n2)c(C)c1 [4f] |
| 43.2 ± 6.16 | Cc1ccccc1-c1csc(N/N=C\c2cnc3ccc(F)cn23)n1 [4h] |
| 34.7 ± 5.23 | Cc1cc(Cl)ccc1-c1csc(N/N=C\c2cnc3ccc(F)cn23)n1 [4k] |
| 19.3 ± 2.58 | Fc1ccc2ncc(/C=N\Nc3nc(-c4ccc(Cl)cc4Cl)cs3)n2c1 [4l] |
| 13.6 ± 1.67 | O=[N+]([O-])c1cc(Cl)ccc1-c1csc(N/N=C\c2cnc3ccc(F)cn23)n1 [4b] |
| 7.16 ± 1.4 | O=[N+]([O-])c1ccc(O)c(-c2csc(N/N=C\c3cnc4ccc(F)cn34)n2)c1 [4o, (Z)-2-(2-(2-((6-fluoroimidazo[1,2-a]pyridin-3-yl)methylene)hydrazineyl)thiazol-4-yl)-4-nitrophenol] |

same assay, conditions: unit not given; in µM

| Compound | IC50 |
| --- | --- |
| COc1cc(O)ccc1-c1csc(N/N=C\c2cnc3ccc(F)cn23)n1 [4i] | 34.91 ± 5.84 |

same assay, conditions: versus acarbose

| Compound | potency as compared to the standard drug |
| --- | --- |
| Cc1ccc(-c2csc(N/N=C\c3cnc4ccc(F)cn34)n2)c([N+](=O)[O-])c1 [4j] | two-fold more potency |
| Fc1ccc2ncc(/C=N\Nc3nc(-c4ccc(Cl)cc4Cl)cs3)n2c1 [4l] | two-fold more potency |
